Source: paper PMC12276029, “Structure−Activity Relationships of New 1‐Aryl‐1H‐Indole Derivatives as SARS‐CoV‐2 Nsp13 Inhibitors” (Chemmedchem, 2025)
Where two headings read alike, the source gives them in different places.

Columns and labels:
[1] = biological target: T1, SARS-CoV-2 nsp13 (Severe acute respiratory syndrome coronavirus 2, UniProt P0DTD1); experiment: SARS-CoV-2 nsp13 unwinding-associated activity assay; type: biochemical; conditions: for IC50: SARS-CoV-2 nsp13-associated unwinding activity, means ± SD from two experiments in triplicate, read-out: Activity in enzyme assay IC50 Unwinding BSA-TCEP; for remaining activity at 30 µM: given in brackets beside IC50 >30 μM, read-out: Percentage of enzymatic residual activity, unwinding; for selectivity for unwinding over ATPase: IC50 ATPase vs IC50 unwinding
[2] = biological target: T1, SARS-CoV-2 nsp13; experiment: SARS-CoV-2 nsp13 ATPase-associated activity assay; type: biochemical; conditions: for IC50 / Activity in enzyme assay IC50 ATPase BSA-TCEP: SARS-CoV-2 nsp13-associated ATPase activity, means ± SD from two experiments in triplicate; for IC50: read-out: Activity in enzyme assay IC50 ATPase BSA-TCEP; for remaining activity at 30 µM: given in brackets beside IC50 >30 μM, read-out: Percentage of enzymatic residual activity, ATPase
[3] = system: SARS-CoV-2; experiment: SARS-CoV-2 plaque assay in infected Vero E6 cells; type: cell-based; conditions: for EC50: Severe acute respiratory syndrome coronavirus 2, plaque assay, means ± SD, n = 9, read-out: EC50, concentration reducing SARS-CoV-2 replication in Vero cells by 50%
[4] = in vitro; conditions: African green monkey
[5] = system: Vero cells; parameters: method as in PMID 37562607; conditions: cited from earlier work
[6] = system: SARS-CoV-2; parameters: method as in PMID 37562607; conditions: cited from earlier work; for EC50: read-out: EC50 SARS-CoV-2 replication
[7] = system: MERS-CoV; conditions: cited from earlier work
[8] = biological target: T1, SARS-CoV-2 nsp13; parameters: method as in PMID 37562607; conditions: SARS-CoV-2 nsp13 unwinding; cited from earlier work
[9] = biological target: T1, SARS-CoV-2 nsp13; parameters: method as in PMID 37562607; conditions: SARS-CoV-2 nsp13 ATPase; cited from earlier work
[10] = system: HCoV229E; parameters: method as in PMID 37562607; conditions: cited from earlier work
[11] = system: SARS-CoV-2; conditions: read-out: EC50 antiviral activity; cited from earlier work
[12] = biological target: T1, SARS-CoV-2 nsp13; conditions: read-out: IC50 vs unwinding; cited from earlier work
[13] = biological target: T1, SARS-CoV-2 nsp13; experiment: Mode-of-action assay (incubation-dependent potency, covalent/noncovalent); type: biochemical; conditions: for IC50: read-out: IC50 at time-point

## CCOC(=O)/C(O)=C/C(=O)/C=C/c1cn(-c2ccc(C#N)cc2)c2ccccc12 [Compound 6g]
[1]
  IC50: 6.26 ± 0.65 µM
[2]
  IC50: 2.35 ± 0.4 µM
[3]
  SI = CC50/EC50: >8
  EC50: 11.8 ± 7.45 µM
[4]
  CC50: > 100 µM

## O=C(/C=C(\O)C(=O)O)/C=C/c1cn(-c2ccc(Cl)cc2)c2ccccc12 [Compound 5f]
[1]
  IC50: 2.64 ± 0.61 µM
[2]
  IC50: 20.95 ± 0.14 µM

## Cc1ccc(-n2cc(/C=C/C(=O)/C=C(\O)C(=O)O)c3ccccc32)cc1 [Compound 5b]
[1]
  IC50: 11.7 ± 0.94 µM
[2]
  IC50: 5.12 ± 0.38 µM

## COc1ccc(-n2cc(C(=O)/C=C(\O)C(=O)O)c3ccccc32)cc1 [Compound 7a]
[1]
  IC50: > 30 µM
  remaining activity at 30 µM: 63.9%
[2]
  IC50: > 30 µM
  remaining activity at 30 µM: 68.7%

## O=C(/C=C(\O)C(=O)O)/C=C/c1cn(-c2ccccc2)c2ccccc12 [Compound 5d]
[1]
  IC50: 11.8 ± 0.48 µM
[2]
  IC50: 13.1 ± 0.37 µM

## COc1ccc(-n2cc(/C=C/C(=O)/C=C(\O)C(=O)O)c3ccccc32)cc1 [Compound 5a]
[1]
  IC50: 2.83 ± 0.54 µM
[2]
  IC50: 11.2 ± 1.37 µM

## N#Cc1ccc(-n2cc(/C=C/C(=O)/C=C(\O)C(=O)O)c3ccccc32)cc1 [Compound 5g]
[1]
  IC50: 10 ± 2.07 µM
[2]
  IC50: 13.6 ± 3.8 µM

## CCOC(=O)/C(O)=C/C(=O)/C=C/c1cn(-c2ccc(F)cc2)c2ccccc12 [Compound 3]
[5]
  CC50: > 264 µM
[6]
  SI = CC50/EC50: >16
  EC50: 16.1 ± 3.25 µM
[7]
  activity range on MERS-CoV: submicromolar
[8]
  IC50: 5.9 ± 0.3 µM
[9]
  IC50: 13.6 ± 3.2 µM
[10]
  activity range on HCoV229E: low micromolar

## C=CCn1c(S)nnc1CSc1ccccc1[N+](=O)[O-] [SSYA10‐001]
[11]
  EC50: 81 µM
[12]
  IC50: 7.5 µM

## CCOC(=O)/C(O)=C/C(=O)c1cn(-c2ccc(F)cc2)c2ccccc12 [Compound 8e]
[1]
  IC50: 12.9 ± 0.59 µM
[2]
  IC50: 16.4 ± 3.1 µM

## CC(C)c1ccc(-n2cc(/C=C/C(=O)/C=C(\O)C(=O)O)c3ccccc32)cc1 [Compound 5c]
[1]
  selectivity for unwinding over ATPase: 70 fold
  IC50: 0.26 ± 0.01 µM
[2]
  IC50: 8.43 ± 0.04 µM
[3]
  SI = CC50/EC50: >47
  EC50: 2.12 ± 0.67 µM
[4]
  CC50: > 100 µM

## O=C(/C=C(\O)C(=O)O)/C=C/c1cn(-c2ccc(F)cc2)c2ccccc12 [Compound 4]
[5]
  CC50: > 264 µM
[6]
  EC50: 1.7 µM
[7]
  activity range on MERS-CoV: submicromolar
[8]
  IC50: 4.7 µM
[9]
  IC50: 8.2 µM
[10]
  activity range on HCoV229E: low micromolar

## CCOC(=O)/C(O)=C/C(=O)/C=C/c1cn(-c2ccc(OC)cc2)c2ccccc12 [Compound 6a]
[1]
  IC50: 7.59 ± 1.5 µM
[2]
  IC50: 10.4 ± 0.13 µM

## CCOC(=O)/C(O)=C/C(=O)/C=C/c1cn(-c2ccc(C(C)C)cc2)c2ccccc12 [Compound 6c]
[1]
  IC50: 4.16 ± 0.44 µM
[2]
  IC50: 13.5 ± 3.34 µM

## O=C(O)/C(O)=C/C(=O)c1cn(-c2ccccc2)c2ccccc12 [Compound 7d]
[1]
  IC50: > 30 µM
  remaining activity at 30 µM: 75.1%
[2]
  IC50: > 30 µM
  remaining activity at 30 µM: 102%

## CCOC(=O)/C(O)=C/C(=O)c1cn(-c2ccccc2)c2ccccc12 [Compound 8d]
[1]
  IC50: 13.3 ± 3.45 µM
[2]
  IC50: 11.3 ± 0.89 µM

## CCOC(=O)/C(O)=C/C(=O)/C=C/c1cn(-c2ccccc2)c2ccccc12 [Compound 6d]
[1]
  IC50: 3.77 ± 0.13 µM
[2]
  IC50: 4.94 ± 0.21 µM

## O=C(/C=C(\O)C(=O)O)/C=C/c1cn(-c2ccc(C(F)(F)F)cc2)c2ccccc12 [Compound 5h]
[1]
  selectivity for unwinding over ATPase: 30 fold
  IC50: 0.21 ± 0.11 µM
[2]
  IC50: 14.2 ± 1.6 µM
[3]
  SI = CC50/EC50: >21
  EC50: 4.56 ± 1.86 µM
[4]
  CC50: > 100 µM

## CCOC(=O)/C(O)=C/C(=O)c1cn(-c2ccc(OC)cc2)c2ccccc12 [Compound 8a]
[1]
  IC50: 18.8 ± 0.22 µM
[2]
  IC50: 19.06 ± 0.14 µM

## CC(C)c1ccc(-n2cc(C(=O)/C=C(\O)C(=O)O)c3ccccc32)cc1 [Compound 7c]
[1]
  IC50: 0.7 ± 0.13 µM
[2]
  Activity in enzyme assay IC50 ATPase BSA-TCEP: no activity
  IC50: > 30 µM
  remaining activity at 30 µM: 63.9%
[3]
  SI = CC50/EC50: >12
  EC50: 8.1 ± 1.37 µM
[4]
  CC50: > 100 µM

## CCOC(=O)/C(O)=C/C(=O)/C=C/c1cn(-c2ccc(C(F)(F)F)cc2)c2ccccc12 [Compound 6h]
[1]
  IC50: 3.11 ± 0.55 µM
[2]
  IC50: 1.21 ± 0.16 µM
[13]; 1 min after the activation of the reaction
  IC50: 0.3 µM
[13]; 5 min after the activation of the reaction
  IC50: 0.48 µM
[13]; 10 min after the activation of the reaction
  IC50: 0.79 µM
[13]; 15 min after the activation of the reaction
  IC50: 1.06 µM
[13]; 20 min after the activation of the reaction
  IC50: 1.31 µM
[13]; from time-increased IC50 values
  nature of the inhibition: noncovalent
[13]; preincubation +20 min and +50 min at room temperature
  effect of extended preincubation of compound and enzyme on potency: did not lead to increasing in inhibitory potency
[3]
  SI = CC50/EC50: >21
  EC50: 4.69 ± 1.8 µM
[4]
  CC50: > 100 µM

## Cc1ccc(-n2cc(C(=O)/C=C(\O)C(=O)O)c3ccccc32)cc1 [Compound 7b]
[1]
  IC50: 1.27 ± 0.29 µM
[2]
  Activity in enzyme assay IC50 ATPase BSA-TCEP: no activity
  IC50: > 30 µM
  remaining activity at 30 µM: 70.8%

## O=C(O)/C(O)=C/C(=O)c1cn(-c2ccc(F)cc2)c2ccccc12 [Compound 7e]
[1]
  IC50: 7.03 ± 1.94 µM
[2]
  Activity in enzyme assay IC50 ATPase BSA-TCEP: no activity
  IC50: > 30 µM
  remaining activity at 30 µM: 99.3%

## CCOC(=O)/C(O)=C/C(=O)c1cn(-c2ccc(C)cc2)c2ccccc12 [Compound 8b]
[1]
  IC50: 17.5 ± 1.37 µM
[2]
  IC50: 18.6 ± 1.14 µM

## CC[C@@]1(O)C(=O)OCc2c1cc1n(c2=O)Cc2cc3ccccc3nc2-1 [Camptothecin, reference compound]
[4]
  CC50: 11.1 ± 0.16 µM

## CCOC(=O)/C(O)=C/C(=O)/C=C/c1cn(-c2ccc(C)cc2)c2ccccc12 [Compound 6b]
[1]
  IC50: 13.9 ± 1.5 µM
[2]
  IC50: 8.64 ± 0.77 µM

## CCOC(=O)/C(O)=C/C(=O)/C=C/c1cn(-c2ccc(Cl)cc2)c2ccccc12 [Compound 6f]
[1]
  IC50: 2.05 ± 0.03 µM
[2]
  IC50: 3.39 ± 0.11 µM
[3]
  SI = CC50/EC50: >12
  EC50: 8 ± 2.19 µM
[4]
  CC50: > 100 µM

## CCOC(=O)/C(O)=C/C(=O)c1cn(-c2ccc(C(C)C)cc2)c2ccccc12 [Compound 8c]
[1]
  IC50: 8.04 ± 2.1 µM
[2]
  IC50: 15.7 ± 0.1 µM

## CC(C)=CCc1c(O)cc(O)c2c(=O)cc(-c3ccc(O)cc3)oc12 [licoflavone C]
[11]
  EC50: > 100 µM
